{
  "source": "patent US20260191807A1",
  "about": "“COMPOSITIONS AND METHODS FOR TREATMENT OF PRADER-WILLI SYNDROME” (ERX Pharmaceuticals Inc., priority 2022, published 2026)",
  "system": "C57BL/6-Magel2 mice",
  "test": "Body weights of C57BL/6 Magel2 mice during daily treatment",
  "assay_type": "in vivo",
  "conditions": "0.2 mg/kg IP QD; for Body weights (in grams) / Body weights (expressed as a percentage of day-1 weight): mean; for body weight lost from day 1 to day 21: vehicle +2.7%",
  "experimental": "In the study disclosed herein, celastrol at was administered intraperitoneally using a 30G needle at a dose of 0.2 mg/kg to five female Magel2 homozygous mice (−/−) and four male mice heterozygous for Magel2 (−/+). In addition, vehicle was administered to four male mice heterozygous for Magel2 (−/+) for 21 days.\nC57BL/6-Magel2 mice were bred for purpose from cryo recovery by Jackson Labs (Bar Harbor, ME) and arrived at the testing facility at age 8 weeks.\nAll treatment volumes were 10 mL/kg. Utilizing the art-recognized nestlet shredding mouse model, the dose was administered by gavage (as capsule dosing is challenging in mice). Celastrol and the vehicle control were administered intraperitoneally using a 30G needle. All treatments were administered daily in the afternoon at 17:00 h, 1 hour before dark cycle from Day 1 to end of dosing.\nCelastrol was dissolved in 50% Solutol/50% DMAC. The resulting stock solution aliquoted and stored at −80° C. until treatment day. On the day of treatment an aliquot of the stock solution was thawed and diluted 1:20 with saline to obtain the desired dosing solution strength in 5%\nMouse body weights were recorded from an Ohaus model CS 200 balance. Mice were weighed daily on Day 1 to Day 21. Body weight changes are expressed as grams and percent of the initial body weight (on Day 1, when treatments began).",
  "key": {"[1]": {"conditions": "Day 2, Magel2 (−/+) heterozygous male mice"}, "[2]": {"conditions": "Day 2, Magel2 (−/−) homozygous female mice"}, "[3]": {"conditions": "Day 4, Magel2 (−/+) heterozygous male mice"}, "[4]": {"conditions": "Day 4, Magel2 (−/−) homozygous female mice"}, "[5]": {"conditions": "Day 6, Magel2 (−/+) heterozygous male mice"}, "[6]": {"conditions": "Day 6, Magel2 (−/−) homozygous female mice"}, "[7]": {"conditions": "Day 8, Magel2 (−/+) heterozygous male mice"}, "[8]": {"conditions": "Day 8, Magel2 (−/−) homozygous female mice"}, "[9]": {"conditions": "Day 10, Magel2 (−/+) heterozygous male mice"}, "[10]": {"conditions": "Day 10, Magel2 (−/−) homozygous female mice"}, "[11]": {"conditions": "Day 11, Magel2 (−/+) heterozygous male mice"}, "[12]": {"conditions": "Day 11, Magel2 (−/−) homozygous female mice"}, "[13]": {"conditions": "Day 13, Magel2 (−/+) heterozygous male mice"}, "[14]": {"conditions": "Day 13, Magel2 (−/−) homozygous female mice"}, "[15]": {"conditions": "Day 15, Magel2 (−/+) heterozygous male mice"}, "[16]": {"conditions": "Day 15, Magel2 (−/−) homozygous female mice"}, "[17]": {"conditions": "Day 17, Magel2 (−/+) heterozygous male mice"}, "[18]": {"conditions": "Day 17, Magel2 (−/−) homozygous female mice"}, "[19]": {"conditions": "Day 18, Magel2 (−/+) heterozygous male mice"}, "[20]": {"conditions": "Day 18, Magel2 (−/−) homozygous female mice"}, "[21]": {"conditions": "Day 20, Magel2 (−/+) heterozygous male mice"}, "[22]": {"conditions": "Day 20, Magel2 (−/−) homozygous female mice"}, "[23]": {"conditions": "Day 21, Magel2 (−/+) heterozygous male mice"}, "[24]": {"conditions": "Day 21, Magel2 (−/−) homozygous female mice"}},
  "data": [
    {"smiles": "CC1=C(O)C(=O)C=C2C1=CC=C1[C@@]2(C)CC[C@@]2(C)[C@@H]3C[C@](C)(C(=O)O)CC[C@]3(C)CC[C@]12C", "note": "[Celastrol]", "values": [
      {"measurement": "Body weights (in grams)", "setting": "Day 1, Magel2 (−/−) homozygous female mice", "result": 20.5, "unit": "grams"},
      {"measurement": "Body weights (expressed as a percentage of day-1 weight)", "setting": "[1]", "result": 99.6, "unit": "%"},
      {"measurement": "Body weights (in grams)", "setting": "[1]", "result": 26.5, "unit": "grams"},
      {"measurement": "Body weights (expressed as a percentage of day-1 weight)", "setting": "[2]", "result": 101.2, "unit": "%"},
      {"measurement": "Body weights (in grams)", "setting": "[2]", "result": 20.8, "unit": "grams"},
      {"measurement": "Body weights (expressed as a percentage of day-1 weight)", "setting": "[3]", "result": 101.1, "unit": "%"},
      {"measurement": "Body weights (in grams)", "setting": "[3]", "result": 26.9, "unit": "grams"},
      {"measurement": "Body weights (expressed as a percentage of day-1 weight)", "setting": "[4]", "result": 105.6, "unit": "%"},
      {"measurement": "Body weights (in grams)", "setting": "[4]", "result": 21.7, "unit": "grams"},
      {"measurement": "Body weights (expressed as a percentage of day-1 weight)", "setting": "[5]", "result": 99.4, "unit": "%"},
      {"measurement": "Body weights (in grams)", "setting": "[5]", "result": 26.4, "unit": "grams"},
      {"measurement": "Body weights (expressed as a percentage of day-1 weight)", "setting": "[6]", "result": 107.1, "unit": "%"},
      {"measurement": "Body weights (in grams)", "setting": "[6]", "result": 22.0, "unit": "grams"},
      {"measurement": "Body weights (expressed as a percentage of day-1 weight)", "setting": "[7]", "result": 101.3, "unit": "%"},
      {"measurement": "Body weights (in grams)", "setting": "[7]", "result": 26.9, "unit": "grams"},
      {"measurement": "Body weights (expressed as a percentage of day-1 weight)", "setting": "[8]", "result": 106.2, "unit": "%"},
      {"measurement": "Body weights (in grams)", "setting": "[8]", "result": 21.8, "unit": "grams"},
      {"measurement": "Body weights (expressed as a percentage of day-1 weight)", "setting": "[9]", "result": 96.4, "unit": "%"},
      {"measurement": "Body weights (in grams)", "setting": "[9]", "result": 25.6, "unit": "grams"},
      {"measurement": "Body weights (expressed as a percentage of day-1 weight)", "setting": "[10]", "result": 100.9, "unit": "%"},
      {"measurement": "Body weights (in grams)", "setting": "[10]", "result": 20.7, "unit": "grams"},
      {"measurement": "Body weights (expressed as a percentage of day-1 weight)", "setting": "[11]", "result": 94.4, "unit": "%"},
      {"measurement": "Body weights (in grams)", "setting": "[11]", "result": 25.1, "unit": "grams"},
      {"measurement": "Body weights (expressed as a percentage of day-1 weight)", "setting": "[12]", "result": 95.6, "unit": "%"},
      {"measurement": "Body weights (in grams)", "setting": "[12]", "result": 19.6, "unit": "grams"},
      {"measurement": "Body weights (expressed as a percentage of day-1 weight)", "setting": "[13]", "result": 94.2, "unit": "%"},
      {"measurement": "Body weights (in grams)", "setting": "[13]", "result": 25.0, "unit": "grams"},
      {"measurement": "Body weights (expressed as a percentage of day-1 weight)", "setting": "[14]", "result": 93.5, "unit": "%"},
      {"measurement": "Body weights (in grams)", "setting": "[14]", "result": 19.2, "unit": "grams"},
      {"measurement": "Body weights (expressed as a percentage of day-1 weight)", "setting": "[15]", "result": 93.9, "unit": "%"},
      {"measurement": "Body weights (in grams)", "setting": "[15]", "result": 25.0, "unit": "grams"},
      {"measurement": "Body weights (expressed as a percentage of day-1 weight)", "setting": "[16]", "result": 95.0, "unit": "%"},
      {"measurement": "Body weights (in grams)", "setting": "[16]", "result": 19.5, "unit": "grams"},
      {"measurement": "Body weights (expressed as a percentage of day-1 weight)", "setting": "[17]", "result": 85.0, "unit": "%"},
      {"measurement": "Body weights (in grams)", "setting": "[17]", "result": 22.6, "unit": "grams"},
      {"measurement": "Body weights (expressed as a percentage of day-1 weight)", "setting": "[18]", "result": 85.3, "unit": "%"},
      {"measurement": "Body weights (in grams)", "setting": "[18]", "result": 17.5, "unit": "grams"},
      {"measurement": "Body weights (expressed as a percentage of day-1 weight)", "setting": "[19]", "result": 83.0, "unit": "%"},
      {"measurement": "Body weights (in grams)", "setting": "[19]", "result": 22.1, "unit": "grams"},
      {"measurement": "Body weights (expressed as a percentage of day-1 weight)", "setting": "[20]", "result": 85.6, "unit": "%"},
      {"measurement": "Body weights (in grams)", "setting": "[20]", "result": 17.6, "unit": "grams"},
      {"measurement": "Body weights (expressed as a percentage of day-1 weight)", "setting": "[21]", "result": 84.5, "unit": "%"},
      {"measurement": "Body weights (in grams)", "setting": "[21]", "result": 22.5, "unit": "grams"},
      {"measurement": "Body weights (expressed as a percentage of day-1 weight)", "setting": "[22]", "result": 88.8, "unit": "%"},
      {"measurement": "Body weights (in grams)", "setting": "[22]", "result": 18.3, "unit": "grams"},
      {"measurement": "Body weights (expressed as a percentage of day-1 weight)", "setting": "[23]", "result": 83.8, "unit": "%"},
      {"measurement": "Body weights (in grams)", "setting": "[23]", "result": 22.3, "unit": "grams"},
      {"measurement": "Body weights (expressed as a percentage of day-1 weight)", "setting": "[24]", "result": 89.6, "unit": "%"},
      {"measurement": "Body weights (in grams)", "setting": "[24]", "result": 18.4, "unit": "grams"},
      {"measurement": "body weight lost from day 1 to day 21", "setting": "female homozygous Magel2 (−/−) mice", "result": 10.4, "unit": "%"},
      {"measurement": "body weight lost from day 1 to day 21", "setting": "male heterozygous Magel2 (−/+) mice", "result": 16.2, "unit": "%"}
    ]}
  ]
}
